Here are results for one compound from patent US20180002247A1, “METHODS FOR CHIRAL RESOLUTION OF TROLOX” (BIOELECTRON TECHNOLOGY CORPORATION, priority 2014, published 2018).

The nature of the data set: Solubility assessment of (R)-Trolox in 12 solvents at 40° C. In kind it is physicochemical. Particulars: for solubility: organic solvent or mixture, thermodynamic from solid. On the procedure: (R)-Trolox (97.89% ee, chemical purity>99.99% AUC) (100 mg) was weighed out in 12 different vials. 12 different solvents were added (one volume at a time) to the different vials and the mixture was maintained at 40° C. The volume of each solvent required to dissolve 100 mg of (R)-Trolox was recorded and the solubility was subsequently calculated.

The structures appear in SMILES notation. Values after ≈ are worked out from the molar mass of the structure shown.

Usually solubility stands for the dissolved amount per volume that the medium holds. As to `Cc1c(C)c2c(c(C)c1O)CCC(C)(C(=O)O)O2` (racemic) [(R)-Trolox, 6-hydroxy-2,5,7,8-tetramethylchroman-2-carboxylic acid], under “all solvents except for pure water”, the “Solubility (in words)” value is reported as “highly soluble”. Further, the solubility (solvent 2-MeTHF) is 524 mg/mL (≈ 2090 mM); the solubility (solvent 5% water/ACN) worked out at 459 mg/mL (≈ 1830 mM); the solubility (solvent 5% water/EtOH) worked out at 854 mg/mL (≈ 3410 mM); the solubility (solvent 5% water/IPA) stood at 978 mg/mL (≈ 3910 mM); the solubility (solvent 5% water/MeOH) was found to be 1040 mg/mL (≈ 4150 mM); the solubility (solvent ACN) was 195 mg/mL (≈ 779 mM). Besides, the solubility was determined as 209 mg/mL (≈ 835 mM) (solvent EtOAc); 494 mg/mL (≈ 1970 mM) (solvent EtOH); 523 mg/mL (≈ 2090 mM) (solvent IPA); 252 mg/mL (≈ 1010 mM) (solvent IPAc); 1000 mg/mL (≈ 4010 mM) (solvent MeOH). Further, the “Solubility at 40° C.” value (solvent water) is on record as “not soluble”.
